Source: article PMC11984392, “EphA2-targeted alpha-particle theranostics for enhancing PDAC treatment” (Theranostics, 2025)
Where two headings read alike, the source gives them in different places. *1 amine or outer side, *2 acyl side, *3 side chain or, on linkers, in order; H or OH if unused. Where a SMILES comes first, the peptide text is derived from it. Bridges are numbered along the chain shown (N, C = ends). [ ]: non-standard residue; d: D form. The star is where a group is joined. TATA = O=C(CC[*:1])N1CN(C(=O)CC[*:2])CN(C(=O)CC[*:3])C1; NOTA = O=C(O)CN1CCN(CC(=O)O)CCN(CC(=O)*)CC1; Hyp = O=C(O)[C@@H]1C[C@@H](O)CN1; hArg = N=C(N)NCCCC[C@H](N)C(=O)O; PEG2 = NCCOCCOCCC(=O)O; Sar = CNCC(=O)O

Columns and labels:
Ex vivo biodistribution [1] = format: in vivo, NSG mice; details: both sexes, NSG, mouse, total radioactivity, 60 min p.i., mean ± SEM (n = 4 or 5)
Protocol: (§1) Animal studies were performed under Johns Hopkins University Animal Care and Use Committee (ACUC)-approved protocol (Principal investigator: Sridhar Nimmagadda, Ph.D. and Protocol number M021M175). Male and Female NSG mice (5-6 weeks old) were purchased from JHU immunocompromised core and used to establish xenografts by administering cells subcutaneously (top right flank, unless otherwise noted) to form various tumor models within 3-4 weeks. Following cell numbers were used: Panc1, AsPC1, BxPC3 (1 M), Hs766T and SU8686 (2 M), CFPAC and Panc1005 (5 M). Imaging or biodistribution studies (n = 3-5) were conducted on mice with tumor volumes of 100-200 mm^3. The Panc1 orthotopic tumor model was established by surgically implanting a 3-5 mm^3 section of Panc1 tumor xenograft directly onto the pancreas. The implanted tumors were allowed to grow and were ready for imaging after 10 days of implantation.
(§2) Mice with 100-200 mm^3 tumor volume were used for ex vivo biodistribution studies. For radiotracer pharmacokinetics and dosimetry studies, mice with Panc1 tumor xenograft received ~80 µCi (2.96 MBq) [^68Ga]AJ201 and were sacrificed at pre-determined time points (5, 30, 60, 90 and 120 min). All other mice were injected with ~50 µCi (1.85 MBq; 0.2 to 0.5 nmol) Ga-68 labeled radiotracer and were sacrificed at 60 min. The selected tissues were collected, weighed, counted, and their %ID/g values calculated for biodistribution analysis. For pharmacokinetics and dosimetry studies, selected tissues included blood, muscle, tumor, thymus, heart, lung, liver, pancreas, stomach, small intestine, large intestine, spleen, adrenals, kidney, bladder, femur, brain and tumor xenografts. For other studies, selected tissues were blood, muscle, tumor, heart, lung, liver, pancreas, small intestine, spleen, kidney.

BxPC3 tumor xenografts = test: Ex vivo biodistribution; format: in vivo, NSG mice; details: BxPC3 xenograft; 60 min p.i.; mean ± SEM (n = 4 or 5)
Protocol: as §1, §2

CFPAC tumor xenografts = test: Ex vivo biodistribution; format: in vivo, NSG mice; details: CFPAC xenograft; 60 min p.i.; mean ± SEM (n = 4 or 5)
Protocol: as §1, §2

Ex vivo biodistribution [2] = format: in vivo, mice; details: mouse, in vivo, total radioactivity, KPC syngeneic tumor, 60 min p.i., mean ± SEM (n = 5)
Protocol: as §2

Compound: CC(C)C[C@@H]1NC(=O)[C@@H]2CSCCC(=O)N3CN(CN(C3)C(=O)CCSC[C@H](NC(=O)[C@H](CC(=O)O)NC(=O)[C@H](CCCCNC(=N)N)NC(=O)[C@H](C)NC(=O)CNC(=O)CN(C)C(=O)CN(C)C(=O)CN(C)C(=O)[C@H](CCCNC(=N)N)NC(=O)CNC(=O)CCOCCOCCNC(=O)CN3CCN(CC(=O)O)CCN(CC(=O)O)CC3)C(=O)N3C[C@H](O)C[C@H]3C(=O)N[C@@H](CC(C)C)C(=O)N[C@@H](C(C)C)C(=O)N[C@@H](CC(N)=O)C(=O)N3CCC[C@H]3C(=O)N[C@@H](CC(C)C)C(=O)N2)C(=O)CCSC[C@@H](C(N)=O)NC(=O)[C@H](CCCCNC(=N)N)NC(=O)[C@H](Cc2c[nH]c3ccccc23)NC(=O)[C@@H](CC(=O)O)NC(=O)[C@@H]2CCCN2C(=O)[C@H](Cc2c[nH]cn2)NC1=O [[^68Ga]AJ201, metal not drawn] ({NOTA-PEG2}-GR[Sar][Sar][Sar]GA[hArg]DC[Hyp]LVNPLCLHP[dD]W[hArg]C-NH2; linker 10-17-24 via TATA)
- tissue uptake at 1 h (Ex vivo biodistribution [1]; spleen, BxPC3 xenograft, read-out: Spleen uptake): 0.64 ± 0.05 %ID/g
- tissue uptake at 1 h (Ex vivo biodistribution [1]; spleen, CFPAC xenograft, read-out: Spleen uptake): 0.87 ± 0.15 %ID/g
- tissue uptake at 1 h (Ex vivo biodistribution [1]; spleen, Hs766T xenograft, read-out: Spleen uptake): 2.75 ± 0.65 %ID/g
- tissue uptake at 1 h (Ex vivo biodistribution [1]; spleen, Panc1005 xenograft, read-out: Spleen uptake): 0.52 ± 0.05 %ID/g
- tissue uptake at 1 h (Ex vivo biodistribution [1]; spleen, Su8686 xenograft, read-out: Spleen uptake): 0.6 ± 0.16 %ID/g
- tissue uptake at 1 h (Ex vivo biodistribution [1]; tumor, 50 uCi, CFPAC xenograft, read-out: Tumor uptake): 2.4 ± 0.2 %ID/g
- tissue uptake at 1 h (Ex vivo biodistribution [1]; tumor, AsPC1 xenograft, read-out: Tumor uptake): 4.01 ± 0.46 %ID/g
- tissue uptake at 1 h (Ex vivo biodistribution [1]; tumor, BxPC3 xenograft, read-out: Tumor uptake): 2.72 ± 0.37 %ID/g
- tissue uptake at 1 h (Ex vivo biodistribution [1]; tumor, Hs766T xenograft, read-out: Tumor uptake): 7.97 ± 2.83 %ID/g
- tissue uptake at 1 h (Ex vivo biodistribution [1]; tumor, Panc1005 xenograft, read-out: Tumor uptake): 5.31 ± 0.9 %ID/g
- tissue uptake at 1 h (Ex vivo biodistribution [1]; tumor, Su8686 xenograft, read-out: Tumor uptake): 7.66 ± 1 %ID/g
- tissue to tissue ratio at 1 h (Ex vivo biodistribution [1]; tumor/blood, AsPC1 xenograft, read-out: Tumor/blood ratio): 1.2 ± 0.06
- tissue to tissue ratio at 1 h (Ex vivo biodistribution [1]; tumor/blood, BxPC3 xenograft, read-out: Tumor/blood ratio): 4.86 ± 0.92
- tissue to tissue ratio at 1 h (Ex vivo biodistribution [1]; tumor/blood, CFPAC xenograft, read-out: Tumor/blood ratio): 4.53 ± 0.9
- tissue to tissue ratio at 1 h (Ex vivo biodistribution [1]; tumor/blood, Hs766T xenograft, read-out: Tumor/blood ratio): 5.47 ± 0.81
- tissue to tissue ratio at 1 h (Ex vivo biodistribution [1]; tumor/blood, Panc1005 xenograft, read-out: Tumor/blood ratio): 12.9 ± 2.38
- tissue to tissue ratio at 1 h (Ex vivo biodistribution [1]; tumor/blood, Su8686 xenograft, read-out: Tumor/blood ratio): 14.2 ± 3.89
- tissue to tissue ratio at 1 h (Ex vivo biodistribution [1]; tumor/muscle, AsPC1 xenograft, read-out: Tumor/Muscle ratio): 9.95 ± 1.49
- tissue to tissue ratio at 1 h (Ex vivo biodistribution [1]; tumor/muscle, BxPC3 xenograft, read-out: Tumor/Muscle ratio): 15.2 ± 2.14
- tissue to tissue ratio at 1 h (Ex vivo biodistribution [1]; tumor/muscle, CFPAC xenograft, read-out: Tumor/Muscle ratio): 12.1 ± 1.45
- tissue to tissue ratio at 1 h (Ex vivo biodistribution [1]; tumor/muscle, Hs766T xenograft, read-out: Tumor/Muscle ratio): 17.2 ± 2.33
- tissue to tissue ratio at 1 h (Ex vivo biodistribution [1]; tumor/muscle, Panc1005 xenograft, read-out: Tumor/Muscle ratio): 50.1 ± 10.2
- tissue to tissue ratio at 1 h (Ex vivo biodistribution [1]; tumor/muscle, Su8686 xenograft, read-out: Tumor/Muscle ratio): 58 ± 11.5
- tissue to tissue ratio at 1 h (Ex vivo biodistribution [1]; tumor/pancreas, AsPC1 xenograft, read-out: Tumor/Pancreas ratio): 6.23 ± 0.65
- tissue to tissue ratio at 1 h (Ex vivo biodistribution [1]; tumor/pancreas, BxPC3 xenograft, read-out: Tumor/Pancreas ratio): 11 ± 1.71
- tissue to tissue ratio at 1 h (Ex vivo biodistribution [1]; tumor/pancreas, CFPAC xenograft, read-out: Tumor/Pancreas ratio): 8.68 ± 1.24
- tissue to tissue ratio at 1 h (Ex vivo biodistribution [1]; tumor/pancreas, Hs766T xenograft, read-out: Tumor/Pancreas ratio): 13.8 ± 2.3
- tissue to tissue ratio at 1 h (Ex vivo biodistribution [1]; tumor/pancreas, Panc1005 xenograft, read-out: Tumor/Pancreas ratio): 26.9 ± 5.62
- tissue to tissue ratio at 1 h (Ex vivo biodistribution [1]; tumor/pancreas, Su8686 xenograft, read-out: Tumor/Pancreas ratio): 39.8 ± 7.21
- Heart uptake (BxPC3 tumor xenografts): 0.29 ± 0.01 %ID/g
- Muscle uptake (CFPAC tumor xenografts): 0.21 ± 0.04 %ID/g
- Small intestine uptake (CFPAC tumor xenografts): 0.51 ± 0.10 %ID/g
- tissue uptake at 1 h (Ex vivo biodistribution [2]; 50 uCi, read-out: Bladder uptake): 74.9 ± 15.3 %ID/g
- tissue uptake at 1 h (Ex vivo biodistribution [2]; 50 uCi, read-out: Femur uptake): 0.71 ± 0.22 %ID/g
- tissue uptake at 1 h (Ex vivo biodistribution [2]; 50 uCi, read-out: Heart uptake): 0.3 ± 0.06 %ID/g
- tissue uptake at 1 h (Ex vivo biodistribution [2]; 50 uCi, read-out: Kidney uptake): 50.3 ± 9.75 %ID/g
- tissue uptake at 1 h (Ex vivo biodistribution [2]; 50 uCi, read-out: Liver uptake): 2.46 ± 0.77 %ID/g
- tissue uptake at 1 h (Ex vivo biodistribution [2]; 50 uCi, read-out: Lung uptake): 0.78 ± 0.13 %ID/g
- tissue uptake at 1 h (Ex vivo biodistribution [2]; 50 uCi, read-out: Muscle uptake): 0.28 ± 0.08 %ID/g
- tissue uptake at 1 h (Ex vivo biodistribution [2]; 50 uCi, read-out: Pancreas uptake): 0.22 ± 0.04 %ID/g
- tissue uptake at 1 h (Ex vivo biodistribution [2]; 50 uCi, read-out: Small intestine uptake): 0.62 ± 0.25 %ID/g
- tissue uptake at 1 h (Ex vivo biodistribution [2]; 50 uCi, read-out: Stomach uptake): 0.95 ± 0.26 %ID/g
- tissue uptake at 1 h (Ex vivo biodistribution [2]; 50 uCi, read-out: Tumor uptake): 1.51 ± 0.28 %ID/g
- tissue to tissue ratio at 1 h (Ex vivo biodistribution [2]; 50 uCi, read-out: Tumor/Muscle ratio): 6 ± 0.77
- tissue to tissue ratio at 1 h (Ex vivo biodistribution [2]; 50 uCi, read-out: Tumor/Pancreas ratio): 6.67 ± 2.18
- tissue to tissue ratio at 1 h (Ex vivo biodistribution [2]; 50 uCi, read-out: Tumor/blood ratio): 2.17 ± 0.46
- tissue uptake at 1 h (Ex vivo biodistribution [2]; read-out: Blood uptake): 0.75 ± 0.15 %ID/g
- tissue uptake at 1 h (Ex vivo biodistribution [2]; read-out: Large Intestine uptake): 0.61 ± 0.28 %ID/g
- tissue uptake at 1 h (Ex vivo biodistribution [2]; read-out: Spleen uptake): 0.71 ± 0.3 %ID/g
